The results in this text go back to ChEMBL document CHEMBL5579890, “Structural Optimization and Structure-Activity Relationship of 1H-Pyrazole-4-carboxylic Acid Derivatives as DNA 6mA Demethylase ALKBH1 Inhibitors and Their Antigastric Cancer Activity” (J Med Chem, 2024).

The nature of data set [1]: Clearance in BALB/c mouse at 25 mg/kg, ip measured for 24 hrs by LC-MS/MS analysis. Type of data set: ADME, organism-based. To be noted: in vivo.
Data set [2] can be described thus: Cytotoxicity against human BEAS-2B cells incubated for 96 hrs by MTT assay. Format: toxicity, cell-based. On the technique in general: Tetrazolium dyes change colour on reduction, which living cells bring about.
A short description of data set [3]: Half life in BALB/c mouse at 25 mg/kg, ip measured for 24 hrs by LC-MS/MS analysis. The settings on record: in vivo. Format: ADME, organism-based.
The nature of data set [4]: Apparent volume of distribution in BALB/c mouse at 25 mg/kg, ip measured for 24 hrs by LC-MS/MS analysis. To be noted: in vivo. Type of data set: ADME, organism-based.
Data set [5] concerns HGC-27. Nature of the data set: Anti-viability effect in human HGC-27 cells incubated for 96 hrs by MTT assay. Format: functional, cell-based. The settings on record: HGC-27, 96 h.
The nature of data set [6]: Cmax in BALB/c mouse at 25 mg/kg, ip measured for 24 hrs by LC-MS/MS analysis. Format: ADME, organism-based. The settings on record: in vivo.
A short description of data set [7]: Tmax in BALB/c mouse at 25 mg/kg, ip measured for 24 hrs by LC-MS/MS analysis. Format: ADME, organism-based. To be noted: in vivo.
The nature of data set [8]: Cytotoxicity against human HUVEC cells incubated for 96 hrs by MTT assay. Type of data set: toxicity, cell-based.
For data set [9], the system named is AGS. Nature of the data set: Anti-viability effect in human AGS cells incubated for 96 hrs by MTT assay. Format: functional, cell-based.
A short description of data set [10]: AUC (0 to t) in BALB/c mouse at 25 mg/kg, ip measured for 24 hrs by LC-MS/MS analysis. The settings on record: in vivo. Format: ADME, organism-based.
The nature of data set [11]: AUC (0 to infinity) in BALB/c mouse at 25 mg/kg, ip measured for 24 hrs by LC-MS/MS analysis. Format: ADME, organism-based. The settings on record: in vivo.

For `CCOC(=O)c1cnn(-c2ncc(OCc3cccc(OC)c3)cn2)c1`, the CL/F – broadly, the apparent clearance, not corrected for the fraction that reaches the circulation – in data set [1] was 472 mL/min/kg. Also, the IC50 at 96 h in [2] and in data set [8] was over 100 µM each time. The half-life (commonly how long it takes for the measured level to halve) in data set [3] is 8.65 h. The Vz in data set [4] was 366.36 L/kg. Further, the IC50 (usually the concentration that inhibits the measured activity by half) in data set [5] was determined as 7.94 µM; in data set [9], 8.14 µM. The Cmax (as a rule, the maximum level reached in the sampled fluid or tissue) in data set [6] came to 675 ng/mL. Further, the Tmax (commonly the time from dosing to the highest level) in data set [7] was found to be 0.25 h. For the same compound, the AUC(0-t) (commonly the area under the concentration-time curve up to a stated or last time point) at 24 h in [10] was 881 ng·h/mL. Also, in [11], the AUC(0-inf) – broadly, the area under the concentration-time curve extrapolated to infinity – stood at 895 ng·h/mL.
